Data: ChEMBL document CHEMBL1201862, “PubChem BioAssay data set” (2004)
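Cells were grown in 96-well plates and exposed to each compound for 48 hours at five concentrations; endpoints were interpolated linearly between bracketing concentrations, or set to the highest concentration if not reached. Here, GI50 denotes the concentration required for 50% inhibition of growth.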 Calls of active or inactive are those of the source. Cut-off read from the data, not from the text of the source: active = GI50 up to about 1.1 µM and inactive = higher.

Experiments:
Test in all cases: NCI tumour cell line growth inhibition, 48 h
BT-549 = test system: BT-549
CCRF-CEM = test system: CCRF-CEM
COLO 205 = test system: COLO 205
DU-145 = test system: DU-145
EKVX = test system: EKVX
HCT-116 = test system: HCT-116
Hs-578T = test system: Hs-578T
KM12 = test system: KM12
MDA-MB-435 = test system: MDA-MB-435
MDA-N = test system: MDA-N
NCI-H226 = test system: NCI-H226
NCI-H460 = test system: NCI-H460
NCI-H522 = test system: NCI-H522
OVCAR-3 = test system: OVCAR-3
RXF 393 = test system: RXF 393
SK-MEL-2 = test system: SK-MEL-2
SK-OV-3 = test system: SK-OV-3
SN12C = test system: SN12C
UACC-62 = test system: UACC-62
UO-31 = test system: UO-31

Row | Compound | GI50 (BT-549) | GI50 (CCRF-CEM) | GI50 (COLO 205) | GI50 (DU-145) | GI50 (EKVX) | GI50 (HCT-116) | GI50 (Hs-578T) | GI50 (KM12) | GI50 (MDA-MB-435) | GI50 (MDA-N) | GI50 (NCI-H226) | GI50 (NCI-H460) | GI50 (NCI-H522) | GI50 (OVCAR-3) | GI50 (RXF 393) | GI50 (SK-MEL-2) | GI50 (SK-OV-3) | GI50 (SN12C) | GI50 (UACC-62) | GI50 (UO-31)
1 | CCNc1ccc2c(c1)C(=O)N(OS(C)(=O)=O)C2=O | 71.4 µM (inactive) | 32.1 µM (inactive) | 42.7 µM (inactive) | > 100 µM (inactive) | 62.7 µM (inactive) | 36.5 µM (inactive) | > 100 µM (inactive) | > 100 µM (inactive) | > 100 µM (inactive) | 89.7 µM (inactive) | 29 µM (inactive) | > 100 µM (inactive) | 16.4 µM (inactive) | 40.7 µM (inactive) | 32.4 µM (inactive) | 65.6 µM (inactive) | > 100 µM (inactive) | > 100 µM (inactive) | > 100 µM (inactive) | 62.5 µM (inactive)
2 | O=C(O)c1nn(-c2ccc(Cl)cc2)c2c1C(=O)c1ccccc1C2=O | > 100 µM (inactive) | < 0.01 µM (active) | > 100 µM (inactive) | > 100 µM (inactive) | > 100 µM (inactive) | > 100 µM (inactive) | > 100 µM (inactive) | > 100 µM (inactive) | > 100 µM (inactive) | > 100 µM (inactive) | > 100 µM (inactive) | 62.1 µM (inactive) | > 100 µM (inactive) | 24.7 µM (inactive) | 17.5 µM (inactive) | > 100 µM (inactive) | > 100 µM (inactive) | > 100 µM (inactive) | > 100 µM (inactive) | > 100 µM (inactive)
3 | O=P(O)(CCP(=O)(O)c1ccccc1)c1ccccc1 | > 100 µM (inactive) | > 100 µM (inactive) | > 100 µM (inactive) | > 100 µM (inactive) | > 100 µM (inactive) | > 100 µM (inactive) | > 100 µM (inactive) | > 100 µM (inactive) | > 100 µM (inactive) | > 100 µM (inactive) | > 100 µM (inactive) | > 100 µM (inactive) | > 100 µM (inactive) | > 100 µM (inactive) | > 100 µM (inactive) | > 100 µM (inactive) | > 100 µM (inactive) | > 100 µM (inactive) | > 100 µM (inactive) | > 100 µM (inactive)
4 | CC(C)CNC(=O)Cn1c(-c2ccccc2)cc2ccccc21 | > 100 µM (inactive) | > 100 µM (inactive) | > 100 µM (inactive) | > 100 µM (inactive) | > 100 µM (inactive) | > 100 µM (inactive) | 19.5 µM (inactive) | > 100 µM (inactive) | > 100 µM (inactive) | > 100 µM (inactive) | > 100 µM (inactive) | > 100 µM (inactive) | 68.1 µM (inactive) | > 100 µM (inactive) | > 100 µM (inactive) | > 100 µM (inactive) | > 100 µM (inactive) | > 100 µM (inactive) | > 100 µM (inactive) | > 100 µM (inactive)
5 | CC(=O)OCC1OC(OCCCOP(=O)(OCCC#N)OCC2OC(n3cnc4c(N)ncnc43)C(OC(=O)c3ccccc3)C2OC(=O)c2ccccc2)C(OC(C)=O)C(OC(C)=O)C1OC(C)=O (stereo not given) | > 100 µM (inactive) | > 100 µM (inactive) | > 100 µM (inactive) | > 100 µM (inactive) | > 100 µM (inactive) | > 100 µM (inactive) | 28.7 µM (inactive) | > 100 µM (inactive) | > 100 µM (inactive) | > 100 µM (inactive) | > 100 µM (inactive) | > 100 µM (inactive) | 16.3 µM (inactive) | > 100 µM (inactive) | > 100 µM (inactive) | > 100 µM (inactive) | > 100 µM (inactive) | > 100 µM (inactive) | > 100 µM (inactive) | > 100 µM (inactive)
6 | CC(=O)SC(C[N+](=O)[O-])c1ccccc1 (stereo not given) | 2.22 µM (inactive) | 2.84 µM (inactive) | 2.77 µM (inactive) | 6.37 µM (inactive) | 6.31 µM (inactive) | 1.6 µM (inactive) | 4.65 µM (inactive) | 4.99 µM (inactive) | 2.09 µM (inactive) | 2.32 µM (inactive) | 2.59 µM (inactive) | 8.67 µM (inactive) | 16.4 µM (inactive) | 5.37 µM (inactive) | 2.1 µM (inactive) | 19.8 µM (inactive) | 13.3 µM (inactive) | 11.1 µM (inactive) | 13.9 µM (inactive) | 2.3 µM (inactive)
7 | COc1ccc(-c2cc(-c3ccccc3)nc(/N=C\c3ccccc3)n2)c(O)c1 | > 31.3 µM (inactive) | 4.06 µM (inactive) | > 100 µM (inactive) | 7.62 µM (inactive) | > 26.4 µM (inactive) | > 26.6 µM (inactive) | > 100 µM (inactive) | 5.9 µM (inactive) | 3.72 µM (inactive) | 5.02 µM (inactive) | > 100 µM (inactive) | 6.81 µM (inactive) | 3.33 µM (inactive) | > 52.2 µM (inactive) | > 100 µM (inactive) | 6.52 µM (inactive) | 7.52 µM (inactive) | > 29 µM (inactive) | > 27.7 µM (inactive) | 3.99 µM (inactive)
